Laboratory results from patent publication US4822800A (Ortho Pharmaceutical Corporation, priority 1986, dated 1989).
Entries after “also recorded” stand apart in the source; their conditions may differ. Like-named read-outs stand apart in the source and are kept apart here.

How the values were obtained:
adult mongrel dogs [1] = assay: acute in vivo cardiotonic activity in anesthetized dogs; design: species or system dog (adult mongrel); settings: for change in vivo at 0.875 mg/kg / change in vivo at 0.025 mg/kg / change in vivo at 0.375 mg/kg: Canis lupus familiaris, cardiotonic, relative to controls; for change in vivo at 0.875 mg/kg: dose 0.875 mg/kg intravenous; for cardiotonic activity (in words): summary of Table 4; for change in vivo at 0.025 mg/kg: dose 0.025 mg/kg intravenous; for change in vivo at 0.375 mg/kg: dose 0.375 mg/kg intravenous
Method in brief: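 Pentobarbital-anaesthetised, artificially respired mongrel dogs received compound by intravenous infusion or oral bolus. Recordings covered femoral arterial pressure, heart rate, LV dP/dt max (Millar catheter), aortic flow cardiac output, right-ventricular contractile force (strain gauge) and lead II ECG. Dopamine 10 μg/kg/min checked responsiveness; dose-related changes were expressed as % of pretreatment values and rated.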

adult mongrel dogs [2] = assay: renal vasodilating activity in anesthetized dogs; format: in vivo, dog (adult mongrel); settings: for change in vivo at 13.9 mg/kg / change in vivo at up to 13.9 mg/kg / change in vivo at 1.2 mg/kg: Canis lupus familiaris, renal vasodilator, relative to controls; for change in vivo at 13.9 mg/kg / change in vivo at up to 13.9 mg/kg: dose 13.9 mg/kg intravenous; for renal vasodilating activity (in words): summary of Table 4; for change in vivo at 1.2 mg/kg: dose 1.2 mg/kg intravenous
Method in brief: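 In anesthetized mongrel dogs, compounds infused IV at rising (usually three-fold) rates, 5 min per dose, after a dopamine check (3 μg/kg/min, 10 min). Renal artery flow measured electromagnetically, pressure via carotid cannula; values are maximal % change from pre-drug control in RBF, RVR (MABP/flow), MABP and HR.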

[3] = molecular target: T1, Phosphodiesterase fraction III (Canis lupus familiaris, UniProt A0A8I3NYE0); assay: inhibition of phosphodiesterase fraction III activity; format: biochemical, canine (heart); settings: for IC50: cyclic AMP 0.10-1.0 uM, pH 7.4, canine heart enzyme; for phosphodiesterase fraction III inhibition (in words): summary of Table 5
T1 construct: isolated as an isozyme from the crude canine heart homogenate; from tissue; host or cells: canine heart (crude homogenate, ion exchange chromatography, third and last PDE peak)
T1 sequence (A0A8I3NYE0 1-1135): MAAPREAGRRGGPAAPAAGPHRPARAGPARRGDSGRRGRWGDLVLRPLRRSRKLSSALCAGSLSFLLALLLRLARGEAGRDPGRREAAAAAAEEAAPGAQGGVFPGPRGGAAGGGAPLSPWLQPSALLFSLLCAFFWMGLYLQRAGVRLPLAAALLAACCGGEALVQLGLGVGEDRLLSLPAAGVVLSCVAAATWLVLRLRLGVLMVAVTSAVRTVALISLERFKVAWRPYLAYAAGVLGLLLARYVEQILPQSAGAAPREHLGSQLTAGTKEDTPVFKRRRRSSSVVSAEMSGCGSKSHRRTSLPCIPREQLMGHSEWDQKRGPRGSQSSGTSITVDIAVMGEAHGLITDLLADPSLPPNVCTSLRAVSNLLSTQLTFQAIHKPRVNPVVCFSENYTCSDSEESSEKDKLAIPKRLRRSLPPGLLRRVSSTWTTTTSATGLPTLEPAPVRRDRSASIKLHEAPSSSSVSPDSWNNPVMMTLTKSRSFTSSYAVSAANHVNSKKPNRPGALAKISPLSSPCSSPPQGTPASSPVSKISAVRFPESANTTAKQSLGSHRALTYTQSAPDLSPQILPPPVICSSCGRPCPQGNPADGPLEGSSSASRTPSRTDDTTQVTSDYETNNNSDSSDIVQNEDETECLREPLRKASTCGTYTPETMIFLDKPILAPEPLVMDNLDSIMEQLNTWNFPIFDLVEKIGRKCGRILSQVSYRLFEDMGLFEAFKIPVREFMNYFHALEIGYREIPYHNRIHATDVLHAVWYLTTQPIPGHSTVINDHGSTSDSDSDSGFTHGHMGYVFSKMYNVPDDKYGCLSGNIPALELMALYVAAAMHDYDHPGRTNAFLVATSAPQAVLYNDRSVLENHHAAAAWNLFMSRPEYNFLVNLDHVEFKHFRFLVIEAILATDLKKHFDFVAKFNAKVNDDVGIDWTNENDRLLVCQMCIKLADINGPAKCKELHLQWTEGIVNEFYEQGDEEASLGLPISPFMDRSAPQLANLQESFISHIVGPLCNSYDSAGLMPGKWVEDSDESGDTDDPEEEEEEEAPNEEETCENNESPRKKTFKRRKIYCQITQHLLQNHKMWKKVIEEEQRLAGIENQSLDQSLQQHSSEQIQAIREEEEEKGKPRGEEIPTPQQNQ

[4] = read-out: MABP (mean arterial blood pressure)
[5] = read-out: dP/dt (maximum change left ventricular pressure with time)
[6] = read-out: RBF (renal blood flow)
[7] = read-out: RVR (renal vascular resistance)

Structure (SMILES)	cardiotonic activity (in words) (adult mongrel dogs [1])	change in vivo at 13.9 mg/kg (adult mongrel dogs [2]; [6])	change in vivo at up to 13.9 mg/kg (adult mongrel dogs [2]; [7])	renal vasodilating activity (in words) (adult mongrel dogs [2])	IC50 [3]	phosphodiesterase fraction III inhibition (in words) [3]	further results
COC(=O)CCc1c(O)nc(C)c2cc(OC)c(OC)cc12 [Compound B, 4-(β-Carbomethoxyethyl)-3-hydroxy-6,7-dimethoxy-1-methylisoquinoline]	cardiotonic properties	15%	-38%	renal vasodilating properties	40 µM	inhibit phosphodiesterase fraction III activity; also recorded: phosphodiesterase fraction III inhibiting properties	change in vivo at 0.875 mg/kg (adult mongrel dogs [1]; read-out: CF (cardiac force)): 140%; change in vivo at 0.875 mg/kg (adult mongrel dogs [1]; read-out: HR (heart rate)): 34%; change in vivo at 0.875 mg/kg (adult mongrel dogs [1]; [4]): -12%; change in vivo at 0.875 mg/kg (adult mongrel dogs [1]; [5]): 78%; change in vivo at 13.9 mg/kg (adult mongrel dogs [2]; read-out: HR (heart rate)): 12%; change in vivo at 13.9 mg/kg (adult mongrel dogs [2]; [4]): -28%
CCc1c(O)nc(C)c2cc(OC)c(OC)cc12 [Compound Z, 4-ethyl-3-hydroxy-6,7-dimethoxy-1-methylisoquinoline]	cardiotonic properties			renal vasodilating properties	2.4 µM	inhibit phosphodiesterase fraction III activity; also recorded: phosphodiesterase fraction III inhibiting properties	change in vivo at 0.025 mg/kg (adult mongrel dogs [1]; read-out: CF (cardiac force)): 143%; change in vivo at 0.025 mg/kg (adult mongrel dogs [1]; read-out: HR (heart rate)): 13%; change in vivo at 0.025 mg/kg (adult mongrel dogs [1]; [4]): -12%; change in vivo at 0.025 mg/kg (adult mongrel dogs [1]; [5]): 98%; change in vivo at 1.2 mg/kg (adult mongrel dogs [2]; [6]): 10%; change in vivo at 1.2 mg/kg (adult mongrel dogs [2]; [7]): -38%
CCCc1c(O)nc(C)c2cc(OC)c(OC)cc12 [Y]	cardiotonic properties	10%	-13%	renal vasodilating properties	5 µM	inhibit phosphodiesterase fraction III activity; also recorded: phosphodiesterase fraction III inhibiting properties	change in vivo at 0.375 mg/kg (adult mongrel dogs [1]; read-out: CF (cardiac force)): 84%; change in vivo at 0.375 mg/kg (adult mongrel dogs [1]; read-out: HR (heart rate)): 12%; change in vivo at 0.375 mg/kg (adult mongrel dogs [1]; [4]): -16%; change in vivo at 0.375 mg/kg (adult mongrel dogs [1]; [5]): 44%
